Measured values reported in US20200055839A1 (priority 2017, published 2020).

System: NL-RLuc virus
Assay: Inhibition of HIV replication (NL-RLuc virus, luciferase readout in MT-2 cells)
Type: cell-based
Conditions: Human immunodeficiency virus 1, MT2, 120 h, MT-2 cells infected with NL-RLuc virus, 5 days of incubation, 10% FBS, at least 2 experiments
Method in brief: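 MT-2 cells infected with NL4-3-derived virus carrying Renilla luciferase in place of part of nef, grown 5 days with serial compound dilutions in RPMI 1640/10% FBS. Virus growth read as luciferase expression. EC50 from median effect equation, at least 2 experiments.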

Structure (SMILES)	EC50
Cc1nc(-c2cnn(C)c2)c(-c2ccc(OCCc3ccc(F)cc3)cc2)c(N2CCC(C)(C)CC2)c1[C@H](OC(C)(C)C)C(=O)O [Example 36, (S)-2-(tert-Butoxy)-2-(4-(4,4-dimethylpiperidin-1-yl)-5-(4-(4-fluorophenethoxy)phenyl)-2-methyl-6-(1-methyl-H-pyrazol-4-yl)pyridin-3-yl)acetic acid]	4 nM
Cc1ncc(-c2ccc3ccncc3c2)c(N2CCC(C)(C)CC2)c1[C@H](OC(C)(C)C)C(=O)O [Example 176, (2S)-2-(tert-Butoxy)-2-[4-(4,4-dimethylpiperidin-1-yl)-5-(isoquinolin-7-yl)-2-methylpyridin-3-yl]acetic acid]	5 nM
CC1(C)CCN(c2c(-c3ccc(OCCc4ccc(F)cc4)c(F)c3)cnc(C#N)c2[C@H](OC(C)(C)C)C(=O)O)CC1 [Example 217, (S)-2-(tert-Butoxy)-2-(2-cyano-4-(4,4-dimethylpiperidin-1-yl)-5-(3-fluoro-4-(4-fluorophenethoxy)phenyl)pyridin-3-yl)acetic acid]	10 nM
COc1ccccc1COc1ccc(-c2cnc(C)c([C@H](OC(C)(C)C)C(=O)O)c2N2CCC(C)(C)CC2)nc1 [Example 357, (2S)-2-(tert-butoxy)-2-[4′-(4,4-dimethylpiperidin-1-yl)-5-[(2-methoxyphenyl)methoxy]-6′-methyl-[2,3′-bipyridine]-5′-yl]acetic acid]	0.8 nM
COc1c(F)cccc1-c1cnc(C)c([C@H](OC(C)(C)C)C(=O)O)c1N1CCC(C)(C)CC1 [Example 166, (2S)-2-(tert-Butoxy)-2-[4-(4,4-dimethylpiperidin-1-yl)-5-(3-fluoro-2-methoxyphenyl)-2-methylpyridin-3-yl]acetic acid]	11 nM
Cc1nc(-n2nc3c(c2N)CCC3)c(-c2ccc(OCCc3ccc(F)cc3)cc2)c(N2CCC(C)(C)CC2)c1[C@H](OC(C)(C)C)C(=O)O [Example 76, (S)-2-(6-(3-Amino-5,6-dihydrocyclopenta[c]pyrazol-2(4H)-yl)-4-(4,4-dimethylpiperidin-1-yl)-5-(4-(4-fluorophenethoxy)phenyl)-2-methylpyridin-3-yl)-2-(tert-butoxy)acetic acid]	4 nM
Cc1nc(N)c(-c2cc(F)c(OCCc3ccc(F)cc3)cc2F)c(N2CCC(C)(C)CC2)c1[C@H](OC(C)(C)C)C(=O)O [Example 68, (2S)-2-(6-Amino-5-(2,5-difluoro-4-(4-fluorophenethoxy)phenyl)-4-(4,4-dimethylpiperidin-1-yl)-2-methylpyridin-3-yl)-2-(tert-butoxy)acetic acid]	2 nM
Cc1ncc(-c2cnc(OCCc3ccccc3F)c(Cl)c2)c(N2CCC(C)(C)CC2)c1[C@H](OC(C)(C)C)C(=O)O [Example 252, (S)-2-(tert-Butoxy)-2-(5′-chloro-4-(4,4-dimethylpiperidin-1-yl)-6′-(2-fluorophenethoxy)-6-methyl-[3, 3′-bipyridin]-5-yl)acetic acid]	1 nM
Cc1n[nH]cc1-c1nc(C)c([C@H](OC(C)(C)C)C(=O)O)c(N2CCC(C)(C)CC2)c1-c1ccc(OCCc2ccc(F)cc2)cc1 [Example 38, (S)-2-(tert-Butoxy)-2-(4-(4,4-dimethylpiperidin-1-yl)-5-(4-(4-fluorophenethoxy)phenyl)-2-methyl-6-(3-methyl-1H-pyrazol-4-yl)pyridin-3-yl)acetic acid]	8 nM
Cc1ncc(-c2ccccn2)c(N2CCC(C)(C)CC2)c1[C@H](OC(C)(C)C)C(=O)O [Example 186, (2S)-2-(tert-Butoxy)-2-[4′-(4,4-dimethylpiperidin-1-yl)-6′-methyl-[2, 3′-bipyridine]-5′-yl]acetic acid]	37 nM
Cc1nc(OCCc2cccc(F)c2)ccc1-c1cnc(C)c([C@H](OC(C)(C)C)C(=O)O)c1N1CCC(C)(C)CC1 [Example 261, (S)-2-(tert-Butoxy)-2-(4-(4,4-dimethylpiperidin-1-yl)-6′-(3-fluorophenethoxy)-2′,6-dimethyl-[3, 3′-bipyridin]-5-yl)acetic acid]	28 nM
COc1ccccc1CCOc1ccc(-c2cnc(C)c([C@H](OC(C)(C)C)C(=O)O)c2N2CCC(C)(C)CC2)nc1 [Example 296, (2S)-2-(tert-butoxy)-2-[4′-(4,4-dimethylpiperidin-1-yl)-5-[2-(2-methoxyphenyl)ethoxy]-6′-methyl-[2,3′-bipyridine]-5′-yl]acetic acid]	2 nM
Cc1ncc(-c2ccc(OCC(C)C)cn2)c(N2CCC(C)(C)CC2)c1[C@H](OC(C)(C)C)C(=O)O [Example 312, (2S)-2-(tert-butoxy)-2-[4′-(4,4-dimethylpiperidin-1-yl)-6′-methyl-5-(2-methylpropoxy)-[2,3′-bipyridine]-5′-yl]acetic acid]	1 nM
COc1cccc(COc2ccc(-c3cnc(C)c([C@H](OC(C)(C)C)C(=O)O)c3N3CCC(C)(C)CC3)nc2)c1 [Example 340, (2S)-2-(tert-butoxy)-2-[4′-(4,4-dimethylpiperidin-1-yl)-5-[(3-methoxyphenyl)methoxy]-6′-methyl-[2,3′-bipyridine]-5′-yl]acetic acid]	2 nM
Cc1nc(NCCCN2CCOCC2)c(-c2ccc(OCCc3ccc(F)cc3)cc2)c(N2CCC(C)(C)CC2)c1[C@H](OC(C)(C)C)C(=O)O [Example 34, (S)-2-(tert-Butoxy)-2-(4-(4,4-dimethylpiperidin-1-yl)-5-(4-(4-fluorophenethoxy)phenyl)-2-methyl-6-((3-morpholinopropyl)amino)pyridin-3-yl)acetic acid]	0.7 nM
Cc1nc(N)c(-c2cnc(NCCc3ccc(F)cc3)c(F)c2)c(N2CCC(C)(C)CC2)c1[C@H](OC(C)(C)C)C(=O)O [Example 113, (S)-2-(2-Amino-4-(4,4-dimethylpiperidin-1-yl)-5′-fluoro-6′-((4-fluorophenethyl)amino)-6-methyl-[3, 3′-bipyridin]-5-yl)-2-(tert-butoxy)acetic acid]	3 nM
Cc1nc(NCCCC2CCCCC2)c(-c2ccc(OCCc3ccc(F)cc3)cc2)c(N2CCC(C)(C)CC2)c1[C@H](OC(C)(C)C)C(=O)O [Example 91, (S)-2-(tert-Butoxy)-2-(6-((3-cyclohexylpropyl)amino)-4-(4,4-dimethylpiperidin-1-yl)-5-(4-(4-fluorophenethoxy)phenyl)-2-methylpyridin-3-yl)acetic acid]	72 nM
Cc1ncc(-c2ccc(OCCc3ccc(F)cc3)c(Cl)c2)c(N2CCC(C)(C)CC2)c1[C@H](OC(C)(C)C)C(=O)O [Example 235, (S)-2-(tert-Butoxy)-2-(5-(3-chloro-4-(4-fluorophenethoxy)phenyl)-4-(4,4-dimethylpiperidin-1-yl)-2-methylpyridin-3-yl)acetic acid]	2 nM
CC1(C)CCN(c2c(-c3ccc(OCCc4ccc(F)cc4)cc3)c(CO)nc(Cl)c2[C@H](OC(C)(C)C)C(=O)O)CC1 [Example 212, (S)-2-(tert-Butoxy)-2-(2-chloro-4-(4,4-dimethylpiperidin-1-yl)-5-(4-(4-fluorophenethoxy)phenyl)-6-(hydroxymethyl)pyridin-3-yl)acetic acid]	0.3 nM
Cc1ncc(-c2cnc(OC[C@@H](C)c3ccccc3)c(F)c2)c(N2CCC(C)(C)CC2)c1[C@H](OC(C)(C)C)C(=O)O [Example 388, (2S)-2-(tert-butoxy)-2-[4-(4,4-dimethylpiperidin-1-yl)-5′-fluoro-6-methyl-6′-[(2S)-2-phenylpropoxy]-[3,3′-bipyridine]-5-yl]acetic acid]	3 nM
